{"source": "patent US20250215029A1", "about": "(Recludix Pharma, Inc., priority 2022, published 2025)", "key": {"pY705-STAT3 in PBMC": {"target": "T1, pY705-STAT3 in PBMC (Homo sapiens, UniProt P40763)", "T1 construct": "Cryopreserved Peripheral Blood Mononuclear Cells (PBMC) are from AllCells; host or cells: cryopreserved PBMC", "T1 sequence (P40763 whole entry)": "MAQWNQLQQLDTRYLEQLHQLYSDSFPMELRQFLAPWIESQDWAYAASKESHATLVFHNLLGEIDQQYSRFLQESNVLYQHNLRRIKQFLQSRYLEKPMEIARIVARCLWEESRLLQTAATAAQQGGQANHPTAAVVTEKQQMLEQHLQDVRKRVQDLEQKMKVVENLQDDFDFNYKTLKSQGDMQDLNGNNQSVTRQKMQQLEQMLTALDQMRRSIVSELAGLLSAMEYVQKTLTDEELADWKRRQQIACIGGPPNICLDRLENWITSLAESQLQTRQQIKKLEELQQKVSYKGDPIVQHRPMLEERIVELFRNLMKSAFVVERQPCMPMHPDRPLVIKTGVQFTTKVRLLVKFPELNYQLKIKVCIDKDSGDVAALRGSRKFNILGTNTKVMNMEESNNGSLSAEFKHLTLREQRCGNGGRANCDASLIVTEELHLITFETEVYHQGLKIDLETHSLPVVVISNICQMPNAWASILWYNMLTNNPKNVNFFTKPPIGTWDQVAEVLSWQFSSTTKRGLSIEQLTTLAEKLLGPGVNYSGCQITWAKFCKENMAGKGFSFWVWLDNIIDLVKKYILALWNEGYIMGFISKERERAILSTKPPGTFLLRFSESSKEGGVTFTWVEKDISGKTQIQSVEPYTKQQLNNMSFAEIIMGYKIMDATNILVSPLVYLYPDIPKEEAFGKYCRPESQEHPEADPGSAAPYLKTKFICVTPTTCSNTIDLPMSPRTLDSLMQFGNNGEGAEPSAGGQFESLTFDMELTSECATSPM", "experiment": "MSD-pSTAT-PBMC Assay (pSTAT3, IL-6 stimulated)", "assay_type": "cell-based", "conditions": "compound 3 hrs, then 10 ng/mL IL-6 for 10 min", "summary_of_the_method": "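Cells are preincubated with compound for 3 hrs, then stimulated for 10 min, IL-4 at 1 ng/mL driving STAT6 phosphorylation and IL-6 at 10 ng/mL driving STAT3. Phospho-STAT in lysates is quantified by MSD immunoassay, and IC50 is fitted after subtracting unstimulated wells.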"}, "pY641-STAT6 in PBMC": {"target": "T2, pY641-STAT6 in PBMC (Homo sapiens, UniProt P42226)", "T2 construct": "Cryopreserved Peripheral Blood Mononuclear Cells (PBMC) are from AllCells; host or cells: cryopreserved PBMC", "T2 sequence (P42226 1-847)": "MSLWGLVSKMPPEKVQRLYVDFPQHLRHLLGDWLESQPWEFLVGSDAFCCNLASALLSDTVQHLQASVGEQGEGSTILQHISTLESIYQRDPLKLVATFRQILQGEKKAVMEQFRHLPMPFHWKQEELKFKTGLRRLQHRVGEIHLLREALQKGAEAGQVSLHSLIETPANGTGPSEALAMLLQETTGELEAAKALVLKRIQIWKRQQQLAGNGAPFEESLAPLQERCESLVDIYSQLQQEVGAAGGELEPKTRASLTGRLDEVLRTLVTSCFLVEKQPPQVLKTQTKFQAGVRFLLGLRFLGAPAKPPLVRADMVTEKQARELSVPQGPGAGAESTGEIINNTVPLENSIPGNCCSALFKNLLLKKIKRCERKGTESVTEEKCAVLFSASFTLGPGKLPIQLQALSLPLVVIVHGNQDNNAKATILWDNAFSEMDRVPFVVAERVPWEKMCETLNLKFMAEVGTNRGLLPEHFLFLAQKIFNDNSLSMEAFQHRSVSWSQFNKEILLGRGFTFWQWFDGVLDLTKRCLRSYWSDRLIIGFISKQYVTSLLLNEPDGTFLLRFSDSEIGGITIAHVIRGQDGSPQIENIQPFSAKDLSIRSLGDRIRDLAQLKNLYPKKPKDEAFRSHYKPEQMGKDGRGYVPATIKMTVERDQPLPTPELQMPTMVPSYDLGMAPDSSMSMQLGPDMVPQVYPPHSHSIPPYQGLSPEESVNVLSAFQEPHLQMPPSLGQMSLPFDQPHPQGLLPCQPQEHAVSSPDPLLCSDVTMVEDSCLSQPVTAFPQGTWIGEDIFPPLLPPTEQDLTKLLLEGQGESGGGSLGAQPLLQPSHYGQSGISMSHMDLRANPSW", "experiment": "MSD-pSTAT-PBMC Assay (pSTAT6, IL-4 stimulated)", "assay_type": "cell-based", "conditions": "compound 3 hrs, then 1 ng/mL IL-4 for 10 min", "summary_of_the_method": "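PBMC (human, cryopreserved, overnight recovery) + cpd 3 hrs → IL-6 10 ng/mL (STAT3) or IL-4 1 ng/mL (STAT6) ×10 min → lysis with protease/phosphatase inhibitors → MSD capture/phospho detection. IC50, variable slope, DMSO-normalized.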"}, "[1]": {"conditions": "PBMC, Table 1114, read-out: pSTAT3"}, "[2]": {"conditions": "PBMC, Table 1114, read-out: pSTAT6"}, "[3]": {"conditions": "PBMC, Table 115, read-out: STAT3"}, "[4]": {"conditions": "PBMC, Table 115, read-out: STAT6"}}, "note": "Like-named read-outs stand apart in the source and are kept apart here.", "data": [{"smiles": "CC(C)(O)CC(=O)SCCOP(=O)(OCCSC(=O)CC(C)(C)O)C(F)(F)c1ccc2sc(C(=O)N[C@H]3CCCC[C@H]4CC[C@@H](C(=O)N5C[C@@H](C#N)[C@H](c6ccccc6)C5)N4C3=O)cc2c1", "note": "(single isomer, unassigned) [Compound 202, S,S′-(((((2-(((3S,6S,10a S)-3-((3S,4R or 3R,4S)-3-cyano-4-phenylpyrrolidine-1-carbonyl)-5-oxodecahydro-pyrrolo [1,2-a]azocin-6-yl)carbamoyl)benzo [b]thiophen-5-yl)difluoromethyl)phosphoryl)bis(oxy))bis(ethane-2,1-diyl)) bis(3-hydroxy-3-methylbutane thioate)]", "values": [{"measurement": "IC50", "setting": "pY705-STAT3 in PBMC; [1]", "value": "> 3000", "unit": "nM"}, {"measurement": "IC50", "setting": "pY641-STAT6 in PBMC; [2]", "value": "1000 to 3000", "unit": "nM"}]}, {"smiles": "CCCOC(=O)[C@H](C)NP(=O)(Oc1ccccc1)C(F)c1ccc2sc(C(=O)N[C@H]3C[C@@H](C)C[C@H]4CC[C@@H](C(=O)N5CC(c6cnccc6F)C5)N4C3=O)cc2c1", "note": "(stereo partly drawn) [Compound 292, propyl ((fluoro(2-(((3S,6S,8R,9aR)-3-(3-(4-fluoropyridin-3-yl)azetidine-1-carbonyl)-8-methyl-5-oxooctahydro-1H-pyrrolo[1,2-a]azepin-6-yl)carbamoyl)benzo [b]thiophen-5-yl)methyl)(phenoxy)phosphoryl)-L-alaninate]", "values": [{"measurement": "IC50", "setting": "pY705-STAT3 in PBMC; [3]", "value": "< 100", "unit": "nM"}, {"measurement": "IC50", "setting": "pY641-STAT6 in PBMC; STAT6, PBMC, Table 115", "value": "> 3000", "unit": "nM"}]}, {"smiles": "CC(C)(C)C(=O)SCCOP(=O)(OCCSC(=O)C(C)(C)C)C(F)(F)c1ccc2sc(C(=O)N[C@H]3CCC[C@H]4CC[C@@H](C(=O)N5CC(CS(C)(=O)=O)C5)N4C3=O)cc2c1", "note": "[Compound 1014, S,S′-((((difluoro(2-(((3S,6S,9aS)-3-(3-((methylsulfonyl)methyl)azetidine-1-carbonyl)-5-oxooctahydro-1H-pyrrolo[1,2-a]azepin-6-yl)carbamoyl)benzo [b]thiophen-5-yl)methyl)phosphoryl)bis(oxy))bis(ethane-2,1-diyl)) bis(2,2-dimethyl-propanethioate)]", "values": [{"measurement": "IC50", "setting": "pY705-STAT3 in PBMC; [3]", "value": "< 100", "unit": "nM"}, {"measurement": "IC50", "setting": "pY641-STAT6 in PBMC; [4]", "value": "100 to 1000", "unit": "nM"}]}, {"smiles": "CCCOC(=O)[C@H](C)NP(=O)(Oc1ccccc1)C(F)c1ccc2sc(C(=O)N[C@H]3CCCC[C@H]4CC[C@@H](C(=O)N5C[C@@H](C#N)[C@H](c6ccccc6)C5)N4C3=O)cc2c1", "note": "(single isomer, unassigned) [Compound 315]", "values": [{"measurement": "IC50", "setting": "pY705-STAT3 in PBMC; [3]", "value": "> 3000", "unit": "nM"}, {"measurement": "IC50", "setting": "pY641-STAT6 in PBMC; STAT6, PBMC, Table 115", "value": "< 100", "unit": "nM"}]}, {"smiles": "CCCOC(=O)[C@H](C)NP(=O)(Oc1ccccc1)[C@@H](F)c1ccc2sc(C(=O)N[C@H]3CCCC[C@H]4CC[C@@H](C(=O)N5C[C@@H](c6ccccc6)[C@H](C#N)C56CC6)N4C3=O)cc2c1", "note": "(stereo partly drawn) [Compound 380, propyl (((R)-(2-(((3S,6S,10aS)-3-((6R,7S)-7-cyano-6-phenyl-4-azaspiro[2.4]heptane-4-carbonyl)-5-oxodecahydropyrrolo [1,2-a]azocin-6-yl)carbamoyl)benzo [b]thiophen-5-yl)fluoromethyl) (phenoxy)phosphoryl)-L-alaninate]", "values": [{"measurement": "IC50", "setting": "pY705-STAT3 in PBMC; [3]", "value": "> 3000", "unit": "nM"}, {"measurement": "IC50", "setting": "pY641-STAT6 in PBMC; STAT6, PBMC, Table 115", "value": "< 100", "unit": "nM"}]}, {"smiles": "CC(C)(CO)C(=O)SCCOP(=O)(Oc1ccccc1)C(F)(F)c1ccc2sc(C(=O)N[C@H]3CCC[C@H]4CC[C@@H](C(=O)N5CC(c6cccnc6)C5)N4C3=O)cc2c1", "note": "(stereo partly drawn) [Compound 201, S-(2-(((difluoro(2-(((3S,6S,9aS)-5-oxo-3-(3-(pyridin-3-yl)azetidine-1-carbonyl)octahydro-1H-pyrrolo[1,2-a]azepin-6-yl)carbamoyl)benzo[b]thiophen-5-yl)methyl) (phenoxy)phosphoryl)oxy)ethyl) 3-hydroxy-2,2-dimethyl-propanethioate]", "values": [{"measurement": "IC50", "setting": "pY705-STAT3 in PBMC; [1]", "value": "100 to 1000", "unit": "nM"}, {"measurement": "IC50", "setting": "pY641-STAT6 in PBMC; pSTAT6, PBMC, Table 1114", "value": "> 3000", "unit": "nM"}]}, {"smiles": "CCCCOC(=O)[C@H](C)NP(=O)(Oc1ccccc1)C(F)(F)c1ccc2ccc(C(=O)N[C@H]3CCCC[C@H]4CC[C@@H](C(=O)N5CC(c6ccccc6)CC56CC6)N4C3=O)cc2c1", "note": "(stereo partly drawn) [Compound 407, butyl ((difluoro(7-(((3S,6S,10aS)-5-oxo-3-(6-phenyl-4-azaspiro[2.4]heptane-4-carbonyl)decahydropyrrolo[1,2-a]azocin-6-yl)carbamoyl)naphthalen-2-yl)methyl)(phenoxy)phosphoryl)-L-alaninate]", "values": [{"measurement": "IC50", "setting": "pY705-STAT3 in PBMC; [3]", "value": "> 3000", "unit": "nM"}, {"measurement": "IC50", "setting": "pY641-STAT6 in PBMC; STAT6, PBMC, Table 115", "value": "1000 to 3000", "unit": "nM"}]}, {"smiles": "CC(C)(CO)C(=O)SCCOP(=O)(Cc1ccc2sc(C(=O)NC3CCCCC4CCC(C(=O)N5CC(C#N)C(c6ccccc6)C5)N4C3=O)cc2c1)OCCSC(=O)C(C)(C)CO", "note": "(single isomer, unassigned) [Compound 199, S,S′-(((((2-(((3S,6S,10aS)-3-((3S,4R or 3R,4S)-3-cyano-4-phenylpyrrolidine-1-carbonyl)-5-oxodecahydropyrrolo[1,2-a]azocin-6-yl)carbamoyl)benzo[b]thiophen-5-yl)methyl)phosphoryl)bis(oxy))bis(ethane-2,1-diyl))bis(3-hydroxy-2,2-dimethylpropanethioate)trifluoroacetate]", "values": [{"measurement": "IC50", "setting": "pY705-STAT3 in PBMC; [1]", "value": "> 3000", "unit": "nM"}, {"measurement": "IC50", "setting": "pY641-STAT6 in PBMC; [2]", "value": "> 3000", "unit": "nM"}]}, {"smiles": "CC(C)CC(=O)SCCOP(=O)(OCCSC(=O)CC(C)C)C(F)(F)c1ccc2sc(C(=O)N[C@H]3CCC[C@H]4CC[C@@H](C(=O)N5CC(c6cccnc6)C5)N4C3=O)cc2c1", "note": "[Compound 177, S,S′-((((difluoro(2-(((3S,6S,9aS)-5-oxo-3-(3-(pyridin-3-yl)azetidine-1-carbonyl)octahydro-1H-pyrrolo[1,2-a]azepin-6-yl)carbamoyl)benzo[b]thiophen-5-yl)methyl)phosphoryl)bis(oxy))bis(ethane-2,1-diyl)) bis(3-methylbutane thioate)]", "values": [{"measurement": "IC50", "setting": "pY705-STAT3 in PBMC; [1]", "value": "< 100", "unit": "nM"}, {"measurement": "IC50", "setting": "pY641-STAT6 in PBMC; [2]", "value": "1000 to 3000", "unit": "nM"}]}, {"smiles": "CN(C)S(=O)(=O)N1CCN(C(=O)[C@@H]2CC[C@@H]3CCCC[C@H](NC(=O)c4cc5cc(C(F)(F)P(=O)(OCOC(=O)C(C)(C)C)OCOC(=O)C(C)(C)C)ccc5s4)C(=O)N32)CC1", "note": "[Compound 145, ((((2-(((3S,6S,10aS)-3-(4-(N,N-dimethylsulfamoyl)piperazine-1-carbonyl)-5-oxodecahydro-pyrrolo[1,2-a]azocin-6-yl)carbamoyl)benzo[b]thiophen-5-yl)difluoromethyl)phosphoryl)bis (oxy))bis (methylene) bis(2,2-dimethylpropanoate)]", "values": [{"measurement": "IC50", "setting": "pY705-STAT3 in PBMC; [1]", "value": "< 100", "unit": "nM"}, {"measurement": "IC50", "setting": "pY641-STAT6 in PBMC; [2]", "value": "< 100", "unit": "nM"}]}, {"smiles": "CCCOC(=O)[C@H](C)NP(=O)(Oc1ccccc1)[C@H](F)c1ccc2sc(C(=O)N[C@H]3CCC[C@H]4CC[C@@H](C(=O)N5C[C@H](c6ccccc6)[C@@H](C#N)C56CC6)N4C3=O)cc2c1", "note": "(stereo partly drawn) [Compound 388, propyl (((S)-(2-(((3S,6S,9aS)-3-((6S,7R)-7-cyano-6-phenyl-4-azaspiro[2.4]heptane-4-carbonyl)-5-oxooctahydro-1H-pyrrolo[1,2-a]azepin-6-yl)carbamoyl)benzo [b]thiophen-5-yl)fluoromethyl) (phenoxy)phosphoryl)-L-alaninate]", "values": [{"measurement": "IC50", "setting": "pY705-STAT3 in PBMC; STAT3, PBMC, Table 115", "value": "> 3000", "unit": "nM"}, {"measurement": "IC50", "setting": "pY641-STAT6 in PBMC; STAT6, PBMC, Table 115", "value": "< 100", "unit": "nM"}]}, {"smiles": "CC(C)CC(=O)SCCOP(=O)(OCOC(=O)O[C@H]1CCOC1)C(F)(F)c1ccc2sc(C(=O)N[C@H]3CCCC[C@H]4CC[C@@H](C(=O)N5C[C@H](c6cc[nH]c(=O)c6)[C@@H](C#N)C5)N4C3=O)cc2c1", "note": "(single isomer, unassigned) [Compound 1097]", "values": [{"measurement": "IC50", "setting": "pY705-STAT3 in PBMC; [3]", "value": "1000 to 3000", "unit": "nM"}, {"measurement": "IC50", "setting": "pY641-STAT6 in PBMC; [4]", "value": "100 to 1000", "unit": "nM"}]}, {"smiles": "CC(C)(C)C(=O)OCOP(=O)(OCOC(=O)C(C)(C)C)C(F)(F)c1ccc2sc(C(=O)N[C@H]3CCCC[C@H]4CC[C@@H](C(=O)N5CC(F)(c6ccccc6)C5)N4C3=O)cc2c1", "note": "[Compound 174, (((difluoro(2-(((3S,6S,10aS)-3-(3-fluoro-3-phenylazetidine-1-carbonyl)-5-oxodecahydropyrrolo [1,2-a]azocin-6-yl)carbamoyl)benzo[b]thiophen-5-yl)methyl)phosphoryl)bis(oxy)) bis(methylene) bis(2,2-dimethylpropanoate)]", "values": [{"measurement": "IC50", "setting": "pY705-STAT3 in PBMC; [1]", "value": "< 100", "unit": "nM"}, {"measurement": "IC50", "setting": "pY641-STAT6 in PBMC; [2]", "value": "100 to 1000", "unit": "nM"}]}]}
